Article PMC11012124, “Synthesis of Novel Triazine-Based Chalcones and 8,9-dihydro-7H-pyrimido[4,5-b][1,4]diazepines as Potential Leads in the Search of Anticancer, Antibacterial and Antifungal Agents” (International Journal of Molecular Sciences, 2024)
≈ marks a conversion by molar mass, not a printed value. Read-outs that look alike come from different tables or passages of the source.

Key:
[1] = system: M. tuberculosis ATCC 27294; test: Antitubercular broth microdilution MIC; type: cell-based; conditions: Mycobacterium tuberculosis; M. tuberculosis ATCC 27294 (H37Rv); read-out: Minimum inhibitory concentration (MIC)
MDA-MB-435 = test: cells; conditions: Homo sapiens, MDA-MB-435, 48 h; for CC50: read-out: LC50
[2] = Hemolytic activity, spectrophotometric; type: cell-based, human; conditions: human, human red blood cells (huRBC), 5% hematocrit, 200 μg/mL, 37 °C
SK-MEL-28 = test: cells; conditions: Homo sapiens, SK-MEL-28, 48 h; for CC50: read-out: LC50
NCI/ADR-RES = test: cells; conditions: Homo sapiens, 48 h; for CC50: read-out: LC50
RXF 393 = test: cells; conditions: Homo sapiens, RXF 393, 48 h
CCRF-CEM = test: cells; conditions: Homo sapiens, 48 h; for CC50: read-out: LC50
K-562 = test: cells; conditions: Homo sapiens, K562, 48 h; for GI50: K-562, 48 h; for CC50: read-out: LC50
PC-3 = test: cells; conditions: Homo sapiens, PC-3, 48 h; for CC50: read-out: LC50
EKVX = test: cells; conditions: Homo sapiens, 48 h; for CC50: read-out: LC50
HS 578T = test: cells; conditions: Homo sapiens, 48 h; for CC50: read-out: LC50
BT-549 = test: cells; conditions: Homo sapiens, BT-549, 48 h; for CC50: read-out: LC50
IGROV1 = test: cells; conditions: Homo sapiens, IGROV-1, 48 h; for CC50: read-out: LC50
NCI-H322M = test: cells; conditions: Homo sapiens, 48 h; for CC50: read-out: LC50
CAKI-1 = test: cells; conditions: Homo sapiens, CAKI-1, 48 h; for CC50: read-out: LC50
SF-268 = test: cells; conditions: Homo sapiens, SF-268, 48 h; for CC50: read-out: LC50
[3] = system: N. gonorrhoeae ATCC 49226; test: MIC on GC agar plates; type: cell-based, Neisseria gonorrhoeae
Summary of the method: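 N. gonorrhoeae (1 × 10^4 CFU) was spotted onto IsoVitaleX-supplemented (1%) GC agar containing graded compound levels. The lowest inhibitory concentration was recorded as the MIC, with oxidase testing used to verify growth, and each assay was done in duplicate on at least two separate occasions.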

ACHN = test: cells; conditions: Homo sapiens, 48 h; for CC50: read-out: LC50
OVCAR-8 = test: cells; conditions: Homo sapiens, OVCAR-8, 48 h; for CC50: read-out: LC50
OVCAR-3 = test: cells; conditions: Homo sapiens, OVCAR-3, 48 h; for CC50: read-out: LC50
HOP-62 = test: cells; conditions: Homo sapiens, HOP-62, 48 h; for CC50: read-out: LC50
SW-620 = test: cells; conditions: Homo sapiens, SW-620, 48 h; for CC50: read-out: LC50
HCC-2998 = test: cells; conditions: Homo sapiens, HCC 2998, 48 h; for CC50: read-out: LC50
MALME-3M = test: cells; conditions: Homo sapiens, 48 h; for CC50: read-out: LC50
SR = test: cells; conditions: Homo sapiens, 48 h
UACC-62 = test: cells; conditions: Homo sapiens, UACC-62, 48 h
SNB-19 = test: cells; conditions: Homo sapiens, SNB-19, 48 h

CN(C)c1nc(NCCNS(=O)(=O)c2ccc(C3=Nc4c(N)nc(N)nc4NC(c4ccc(F)cc4)C3)cc2)nc(Nc2ccc(F)cc2)n1 (centres unmarked) [31f]
MIC [1]: 1.2 µg/mL (≈ 1.71 µM) | GI50 (MDA-MB-435): 5.93 µM | CC50 (MDA-MB-435): > 100 µM | hemolysis at 24 h, 200 µg/mL [2]: 2.4% | GI50 (SK-MEL-28): 15.7 µM | CC50 (SK-MEL-28): > 100 µM | GI50 (NCI/ADR-RES): > 100 µM | CC50 (NCI/ADR-RES): > 100 µM | GI50 (RXF 393): 2.48 µM | GI50 (CCRF-CEM): 3.99 µM | CC50 (CCRF-CEM): > 100 µM | GI50 (K-562): 2.8 µM | CC50 (K-562): > 100 µM | GI50 (PC-3): 5.04 µM | CC50 (PC-3): > 100 µM | GI50 (EKVX): 5.17 µM | CC50 (EKVX): > 100 µM | GI50 (HS 578T): 5.7 µM | CC50 (HS 578T): > 100 µM | GI50 (BT-549): 3.26 µM | CC50 (BT-549): 18.2 µM | GI50 (IGROV1): 5.01 µM | CC50 (IGROV1): > 100 µM | GI50 (NCI-H322M): > 100 µM | CC50 (NCI-H322M): > 100 µM | GI50 (CAKI-1): 6.5 µM | CC50 (CAKI-1): > 100 µM | GI50 (SF-268): 4.83 µM | CC50 (SF-268): > 100 µM | MIC [3]: 0.25 µg/mL (≈ 0.356 µM) | MIC ([3]; Neisseria gonorrhoeae, ATCC49226, read-out: MIC): 0.25 µg/mL (≈ 0.356 µM) | GI50 (ACHN): > 100 µM | CC50 (ACHN): > 100 µM | GI50 (OVCAR-8): 12 µM | CC50 (OVCAR-8): > 100 µM | GI50 (OVCAR-3): 8.09 µM | CC50 (OVCAR-3): > 100 µM | GI50 (HOP-62): 96 µM | CC50 (HOP-62): > 100 µM | GI50 (SW-620): 8.27 µM | CC50 (SW-620): > 100 µM | GI50 (HCC-2998): 4.22 µM | CC50 (HCC-2998): > 100 µM | GI50 (MALME-3M): 6.28 µM | CC50 (MALME-3M): > 100 µM

Cc1ccc(/C=C/C(=O)c2ccc(S(=O)(=O)NCCNc3nc(Nc4ccc(F)cc4)nc(N(C)C)n3)cc2)cc1 [24b]
MIC [1]: 25 µg/mL (≈ 43.4 µM) | GI50 (MDA-MB-435): 6.03 µM | CC50 (MDA-MB-435): 61.7 µM | hemolysis at 24 h, 200 µg/mL [2]: 1.2% | GI50 (SK-MEL-28): 11.3 µM | CC50 (SK-MEL-28): 49.6 µM | GI50 (NCI/ADR-RES): 8.4 µM | CC50 (NCI/ADR-RES): 47.1 µM | GI50 (RXF 393): 4.98 µM | CC50 (RXF 393; read-out: LC50): 44.9 µM | GI50 (CCRF-CEM): 5.28 µM | CC50 (CCRF-CEM): > 100 µM | GI50 (K-562): 3.89 µM | CC50 (K-562): > 100 µM | GI50 (PC-3): 3.54 µM | CC50 (PC-3): 89.5 µM | GI50 (EKVX): 4.96 µM | CC50 (EKVX): 43.3 µM | GI50 (HS 578T): 10.7 µM | CC50 (HS 578T): > 100 µM | GI50 (BT-549): 15.7 µM | CC50 (BT-549): 57.8 µM | GI50 (SR): 2.76 µM | CC50 (SR; read-out: LC50): > 100 µM | GI50 (IGROV1): 15.1 µM | CC50 (IGROV1): 63.6 µM | GI50 (UACC-62): 8.4 µM | CC50 (UACC-62; read-out: LC50): 47.1 µM | GI50 (NCI-H322M): 11.8 µM | CC50 (NCI-H322M): 62.5 µM | GI50 (CAKI-1): 6.98 µM | CC50 (CAKI-1): 58 µM | GI50 (SF-268): 8.76 µM | CC50 (SF-268): 90.9 µM | GI50 (ACHN): 6.31 µM | CC50 (ACHN): 44.1 µM | GI50 (OVCAR-8): 13 µM | CC50 (OVCAR-8): 56 µM | GI50 (OVCAR-3): 11.3 µM | CC50 (OVCAR-3): 54.6 µM | GI50 (SNB-19): 11 µM | CC50 (SNB-19; read-out: LC50): 50.2 µM | GI50 (HOP-62): 15.3 µM | CC50 (HOP-62): 64.8 µM | GI50 (SW-620): 7.53 µM | CC50 (SW-620): 49.4 µM | GI50 (HCC-2998): 4.5 µM | CC50 (HCC-2998): 41 µM | GI50 (MALME-3M): 16.4 µM | CC50 (MALME-3M): 60.9 µM
